Literature values as cited in patent US20240156825A1, “USE OF SELECTIVE VEGFR2 AND FGFR1 INHIBITORS” (Fountain Therapeutics Inc., priority 2022, published 2024).
Where two headings read alike, the source gives them in different places.

Legend:
VEGFR2 = VEGFR2 (Homo sapiens, UniProt P35968); conditions: reported IC50 to VEGFR2, read-out: VEGFR2 IC50_μM, cited from earlier work
any gene target = conditions: next lowest IC50 value to any gene target, read-out: Min IC50_μM, cited from earlier work
[1] = Table 3, selective inhibitors of VEGFR2

VEGFR2, sequence (P35968 20-1356, species assumed): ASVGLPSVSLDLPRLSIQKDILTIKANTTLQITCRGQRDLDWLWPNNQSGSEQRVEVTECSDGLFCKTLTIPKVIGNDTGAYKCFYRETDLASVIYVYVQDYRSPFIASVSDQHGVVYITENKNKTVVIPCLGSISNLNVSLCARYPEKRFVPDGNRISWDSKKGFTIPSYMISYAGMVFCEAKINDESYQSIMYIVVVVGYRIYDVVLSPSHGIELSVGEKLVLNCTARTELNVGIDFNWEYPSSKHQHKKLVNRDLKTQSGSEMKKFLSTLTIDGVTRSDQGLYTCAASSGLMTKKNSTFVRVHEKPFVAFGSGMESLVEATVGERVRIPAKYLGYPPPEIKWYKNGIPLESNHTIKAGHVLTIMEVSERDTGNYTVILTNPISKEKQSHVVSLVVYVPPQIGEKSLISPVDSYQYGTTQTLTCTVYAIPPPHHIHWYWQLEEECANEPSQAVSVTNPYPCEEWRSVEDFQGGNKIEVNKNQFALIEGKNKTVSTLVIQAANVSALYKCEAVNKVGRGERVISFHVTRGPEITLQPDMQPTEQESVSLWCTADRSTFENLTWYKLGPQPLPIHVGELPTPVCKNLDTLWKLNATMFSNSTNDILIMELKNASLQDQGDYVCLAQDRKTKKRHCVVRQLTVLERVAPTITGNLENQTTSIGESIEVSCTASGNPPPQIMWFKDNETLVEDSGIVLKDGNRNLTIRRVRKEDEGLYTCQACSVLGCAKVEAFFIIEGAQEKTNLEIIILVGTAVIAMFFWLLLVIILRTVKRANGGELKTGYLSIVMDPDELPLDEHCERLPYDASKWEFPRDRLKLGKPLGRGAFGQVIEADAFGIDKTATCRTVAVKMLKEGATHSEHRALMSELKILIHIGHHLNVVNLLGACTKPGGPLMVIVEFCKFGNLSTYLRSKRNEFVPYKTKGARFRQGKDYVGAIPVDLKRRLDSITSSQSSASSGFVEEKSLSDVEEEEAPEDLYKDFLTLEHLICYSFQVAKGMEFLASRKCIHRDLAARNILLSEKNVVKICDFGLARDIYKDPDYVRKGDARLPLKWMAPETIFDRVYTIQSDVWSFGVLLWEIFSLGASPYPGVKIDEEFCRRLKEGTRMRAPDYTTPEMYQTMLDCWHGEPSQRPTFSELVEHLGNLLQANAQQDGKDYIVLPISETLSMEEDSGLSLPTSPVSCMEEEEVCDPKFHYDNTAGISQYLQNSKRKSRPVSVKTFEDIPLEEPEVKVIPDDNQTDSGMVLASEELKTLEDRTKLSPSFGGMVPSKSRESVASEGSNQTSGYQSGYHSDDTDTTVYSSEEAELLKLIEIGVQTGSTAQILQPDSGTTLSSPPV

SMILES: COC(=O)c1ccc2c(C(=Nc3ccc(N(C)C(=O)Cn4ccnc4)cc3)c3ccccc3)c(O)[nH]c2c1 [compound 135399795]
- IC50 (VEGFR2): 6 nM
- IC50 (any gene target): 7 nM

SMILES: C[C@@H](Nc1ncnc2[nH]c(-c3ccc(CN4CCN(CCCCC(=O)NO)CC4)cc3)cc12)c1ccccc1 [compound 24900441]
- IC50 (VEGFR2): 100 nM
- IC50 (any gene target): 100 nM

SMILES: O=C(CCCCCCCNC(=O)c1cc(Oc2ccc(NC(=O)Nc3ccc(Cl)c(C(F)(F)F)c3)cc2)ccn1)NO [compound 25071593]
- IC50 (VEGFR2): 100 nM
- IC50 (any gene target): 100 nM

SMILES: CSc1cn2c(-c3cn[nH]c3)cnc2c(Nc2cc(C)ns2)n1 [compound 25094210]
- IC50 (VEGFR2): 36 nM
- IC50 (any gene target): 167 nM

SMILES: COc1cc2c(Nc3ccc(Br)c(Cl)c3)ncnc2cc1OC1CCN(C)C1 (stereo not drawn) [compound 57802786]
- IC50 (VEGFR2): 50 nM
- IC50 (any gene target): 50 nM

SMILES: COc1cc2c(Nc3cc(Cl)c(Cl)cc3F)ncnc2cc1OC[C@@H]1CO[C@H]2[C@@H]1OC[C@@H]2OC [compound 66954904]
- IC50 (VEGFR2; [1]): 50 nM
- IC50 (any gene target; Table 3): 50 nM

SMILES: C[C@@H](Nc1ncnc2[nH]c(-c3ccc(CNCCCCCC(=O)NO)cc3)cc12)c1ccccc1 [compound 24900643]
- IC50 (VEGFR2): 100 nM
- IC50 (any gene target): 100 nM

SMILES: COc1cc2c(Oc3ccc(NC(=O)C4(C(=O)Nc5ccc(F)cc5)CC4)cc3F)ccnc2cc1OCCCC(=O)NO [compound 71466525]
- IC50 (VEGFR2): 12 nM
- IC50 (any gene target): 19 nM

SMILES: COc1cc2c(Nc3c(F)cc(Cl)cc3F)ncnc2cc1OCC1CCN(C)CC1 [compound 5329045]
- IC50 (VEGFR2): 25 nM
- IC50 (any gene target): 60 nM

SMILES: COc1cc2c(Nc3ccc(Br)c(Cl)c3Cl)ncnc2cc1OCC1CN(C)CCO1 (stereo not drawn) [compound 57802669]
- IC50 (VEGFR2): 50 nM
- IC50 (any gene target): 50 nM

SMILES: COc1cc2c(Nc3cc(F)c(Br)c(F)c3)ncnc2cc1OCC1CN(C)CCO1 (stereo not drawn) [compound 57802849]
- IC50 (VEGFR2; [1]): 50 nM
- IC50 (any gene target; Table 3): 50 nM

SMILES: COc1cc2c(Nc3ccc(Br)c(F)c3F)ncnc2cc1OCC1CN(C)CCO1 (stereo not drawn) [compound 57802560]
- IC50 (VEGFR2; [1]): 50 nM
- IC50 (any gene target; Table 3): 50 nM

SMILES: COc1cc2c(Nc3ccc(Br)c(Cl)c3Cl)ncnc2cc1OC[C@H]1CN2CCCC[C@H]2CO1 [compound 134150926]
- IC50 (VEGFR2; [1]): 50 nM
- IC50 (any gene target; Table 3): 50 nM

SMILES: Cc1ccc(NC(=O)C2(C(=O)Nc3ccc(Nc4ncc(F)c(-c5cc(F)c6nc(C)n(C(C)C)c6c5)n4)cc3)CC2)cc1 [compound 155517777]
- IC50 (VEGFR2; [1]): 46 nM
- IC50 (any gene target; Table 3): 46 nM

SMILES: COc1cc2c(Nc3ccc(Cl)c(Cl)c3F)ncnc2cc1OC[C@@H]1CN2CCOC[C@H]2CO1 [compound 66838539]
- IC50 (VEGFR2; [1]): 50 nM
- IC50 (any gene target; Table 3): 50 nM

SMILES: C[C@@H](Nc1ncnc2[nH]c(-c3ccc(OCCCC(=O)NO)cc3)cc12)c1ccccc1 [compound 24900506]
- IC50 (VEGFR2): 100 nM
- IC50 (any gene target): 100 nM

SMILES: Cc1nc2ccc(N(C)c3ccnc(Nc4cccc(S(N)(=O)=O)c4)n3)cc2n1C [compound 24949704]
- IC50 (VEGFR2): 63 nM
- IC50 (any gene target): 1700 nM

SMILES: CC(=O)Nc1ccc2c(c1)C(c1ccccc1Cl)=Nc1cn[nH]c1N2 [compound 136002662]
- IC50 (VEGFR2): 33 nM
- IC50 (any gene target): 38 nM

SMILES: CCC(=O)N1CCOC(COc2cc3ncnc(Nc4ccc(Cl)c(Cl)c4)c3cc2OC)C1 (stereo not drawn) [compound 57802906]
- IC50 (VEGFR2; [1]): 50 nM
- IC50 (any gene target; Table 3): 50 nM

SMILES: Clc1cccc(Nc2cncc(-c3cncc(NCCCn4cccn4)c3)n2)c1 [compound 5330391]
- IC50 (VEGFR2): 93.3 nM
- IC50 (any gene target): 326 nM

SMILES: COc1cc2c(Nc3ccc(F)c(Cl)c3F)ncnc2cc1OC[C@@H]1CN2CCC[C@H]2CO1 [compound 58013819]
- IC50 (VEGFR2; [1]): 50 nM
- IC50 (any gene target; Table 3): 50 nM

SMILES: COc1cc2c(Nc3ccc(Br)cc3F)ncnc2cc1OCCC1CCNCC1 [compound 5329054]
- IC50 (VEGFR2; [1]): 40 nM
- IC50 (any gene target; Table 3): 40 nM

SMILES: CNc1cc2c(cn1)cc(-c1ccc(F)c(NC(=O)Nc3cc(C(C)(C)C)no3)c1)c(=O)n2[C@H]1CCOC1 [compound 122177477]
- IC50 (VEGFR2): 0.46 nM
- IC50 (any gene target): 1 nM

SMILES: CN(c1ccc(F)c(NC(=O)c2cccc(OC(C)(C)C#N)c2Cl)c1)c1ccc2nc(NC(=O)C3CC3)sc2n1 [compound 25206346]
- IC50 (VEGFR2): 1.2 nM
- IC50 (any gene target): 23 nM

SMILES: COc1cc2ncnc(Nc3ccc(F)cc3)c2cc1OCCCC(=O)NO [compound 127026070]
- IC50 (VEGFR2): 376 nM
- IC50 (any gene target): 1340 nM

SMILES: COc1cc2c(Nc3ccc(Br)c(Cl)c3F)ncnc2cc1OC[C@@H]1CN(C)CC(=O)N1C [compound 57802721]
- IC50 (VEGFR2): 50 nM
- IC50 (any gene target): 50 nM

SMILES: COc1cc2c(Nc3ccc(Cl)cc3F)ncnc2cc1OCCC1CCN(C)CC1 [compound 5329052]
- IC50 (VEGFR2): 55 nM
- IC50 (any gene target): 70 nM

SMILES: COc1cc2c(Nc3ccc(Cl)c(Cl)c3F)ncnc2cc1OC[C@@H]1CN2CCC[C@H]2CO1 [compound 57802793]
- IC50 (VEGFR2; [1]): 50 nM
- IC50 (any gene target; Table 3): 50 nM

SMILES: C[C@@H](Nc1ncnc2[nH]c(-c3ccc(C(=O)NCCNCCCCCC(=O)NO)cc3)cc12)c1ccccc1 [compound 24900641]
- IC50 (VEGFR2): 100 nM
- IC50 (any gene target): 100 nM

SMILES: COc1cc2c(Nc3ccc(-c4nc5ccccc5s4)cc3)ncnc2cc1OCCCN1CCN(C)CC1 [compound 46225612]
- IC50 (VEGFR2): 12 nM
- IC50 (any gene target): 14 nM

SMILES: COc1cc2c(Nc3ccc(Cl)c(Cl)c3)ncnc2cc1OCC1CN(C(N)=NC#N)CCO1 (stereo not drawn) [compound 57802878]
- IC50 (VEGFR2; [1]): 50 nM
- IC50 (any gene target; Table 3): 50 nM

SMILES: COc1cc2c(Nc3ccc(Br)c(Cl)c3)ncnc2cc1OCC1CN(C)CCO1 (stereo not drawn) [compound 57802766]
- IC50 (VEGFR2): 50 nM
- IC50 (any gene target): 50 nM

SMILES: C[C@@H]1CN(C(=O)CCCC(=O)N2C[C@@H](C)c3c2cc(O)c2ccccc32)c2cc(O)c3ccccc3c21 [compound 155536201]
- IC50 (VEGFR2): 330 nM
- IC50 (any gene target): 540 nM

SMILES: COc1cc2c(Nc3c(F)cc(Cl)cc3F)ncnc2cc1OCC1CCNCC1 [compound 5329050]
- IC50 (VEGFR2): 40 nM
- IC50 (any gene target): 100 nM

SMILES: COc1cccc(-c2ccc3c(c2)NC(=O)/C3=C\c2[nH]c3c(c2CCC(=O)O)CCCC3)c1 [compound 5329169]
- IC50 (VEGFR2): 70 nM
- IC50 (any gene target): 100 nM

SMILES: COCCNC(=O)c1cccc2cc(Oc3ncnc4cc(OC)c(OC)cc34)ccc12 [compound 24823252]
- IC50 (VEGFR2): 314 nM
- IC50 (any gene target): 385 nM

SMILES: Clc1cccc(Nc2cncc(-c3cncc(NCCCn4cncn4)c3)n2)c1 [compound 5330392]
- IC50 (VEGFR2): 67 nM
- IC50 (any gene target): 153 nM

SMILES: COc1cc2c(Nc3ccc(Cl)cc3F)ncnc2cc1OCC1CCNCC1 [compound 73349643]
- IC50 (VEGFR2): 50 nM
- IC50 (any gene target): 60 nM

SMILES: Cc1nn(C)c2cc(N(C)c3ccnc(Nc4cccc(S(N)(=O)=O)c4)n3)ccc12 [compound 24949545]
- IC50 (VEGFR2): 36 nM
- IC50 (any gene target): 1000 nM

SMILES: COc1cc2c(Nc3ccc(Cl)c(Cl)c3)ncnc2cc1OCC1CC1 [compound 57802643]
- IC50 (VEGFR2): 50 nM
- IC50 (any gene target): 50 nM

SMILES: COc1cc2c(Nc3ccc(Cl)c(Cl)c3)ncnc2cc1OCC1CN(C(=NC#N)N2CCCCC2)CCO1 (stereo not drawn) [compound 57802736]
- IC50 (VEGFR2): 50 nM
- IC50 (any gene target): 50 nM

SMILES: COc1cc2c(Nc3ccc(Cl)c(Cl)c3)ncnc2cc1OCC1CN(S(C)(=O)=O)CCO1 (stereo not drawn) [compound 57802901]
- IC50 (VEGFR2; [1]): 50 nM
- IC50 (any gene target; Table 3): 50 nM

SMILES: COc1cc2c(Nc3ccc(Br)c(Cl)c3F)ncnc2cc1OC[C@@H]1CN2CCC[C@H]2CO1 [compound 57802905]
- IC50 (VEGFR2; [1]): 50 nM
- IC50 (any gene target; Table 3): 50 nM

SMILES: OCCCCNc1cncc(-c2cncc(Nc3cccc(Cl)c3)n2)c1 [compound 5330388]
- IC50 (VEGFR2): 63 nM
- IC50 (any gene target): 2360 nM

SMILES: COc1cc2c(Nc3ccc(Br)c(Cl)c3Cl)ncnc2cc1OCC1CN(C)C(C)(C)CO1 (stereo not drawn) [compound 57802578]
- IC50 (VEGFR2): 50 nM
- IC50 (any gene target): 50 nM
